# Experimental data from patent US20110251379A1, “COMPOUNDS USEFUL FOR TREATING NEURODEGENERATIVE DISORDERS” (Satori Pharmaceuticals, Inc., priority 2010, published 2011).
# Like-named read-outs stand apart in the source and are kept apart here.
# How the values were obtained:
# Type in all cases: cell-based
# [1] = test system: Aβ-40; assay: MSD Human (6E10) Ab 3-PLEX elisa, conditioned media of 2B7 cells: Aβ-40; conditions: Homo sapiens; for IC50: Aβ-40 (superscript b)
# Experimental: (§1) Assays were conducted to determine the ability of a Compound of Formula I to modulate […], and Aβ-38.
# (§2) Plates with capture antibodies were blocked for 1-2 hours at room temperature with 150 μL of the manufactures blocking reagent.
# (§3) Conditioned Media: • Cultured 2B7 cells in 96 well plate with 250 uL of media per well until confluent; • Prepared serial dilutions of compounds in DMSO at 100× the final desired concentration; • Washed wells with 2B7 cells 1× with 250 uL of media; • Diluted DMSO stocks 1:100 into media: • Added 250 μL of media containing compounds (1% DMSO) to wells with 2B7 cells for 5 hours at 37° C.
# (§4) Elisa Sample Prep: • Diluted conditioned media: 1 part media with 1% DMSO and 1 part blocking buffer; • 150 μL of the 250 μL of conditioned media were used.
# (§5) […] CURVE SAMPLE PREP: Prepared per manufacturer's protocol (see above) • Seven point standard curve samples were prepared that contained Aβ-42, Aβ-40, and Aβ-38. The highest concentration of Aβ-42 and Aβ-3-38 was 3,000 pg/mL and the highest concentration of Aβ-40 was 10,000 pg/mL. Subsequent serial dilutions were 1:3 and the final composition of each sample was 1 part blocking buffer and 1 part cell medium containing 1% DMSO.
# (§6) Overnight Sample Incubation: • Blocked plates are washed 5× with MSD wash buffer with a plate washer • 25 uL of detection antibody and blocker G reagent in MSD blocking solution is added • 25 uL of samples (1 part conditioned media containing 1% DMSO and 1 part MSD blocking buffer) are then added. • plates are incubated overnight at 4 degrees C. or 2 hours at room temp
# (§7) Final Wash and Readout: • Wash wells 5× with MSD wash buffer • Added 150 μL 2×MSD read buffer • Read with MSD imager.
# (§8) A-Beta peptide levels for each peptide are calculated from the standard curve using the MSD software provided with the MSD 2400 Imager. Percent vehicle values for each compound dosage were then calculated and fit to a 4 parameter curve generating IC50 values.
# [2] = test system: Aβ-38; assay: MSD Human (6E10) Ab 3-PLEX elisa, conditioned media of 2B7 cells: Aβ-38; conditions: Homo sapiens; for IC50: Aβ-38 (superscript a)
# Experimental: as §1, §2, §3, §4, §5, §6, §7, §8
# [3] = test system: Aβ-42; assay: MSD Human (6E10) Ab 3-PLEX elisa, conditioned media of 2B7 cells: Aβ-42; conditions: Homo sapiens; for IC50: Aβ-42 (superscript c)
# Experimental: as §1, §2, §3, §4, §5, §6, §7, §8
# [4] = test system: amyloid-beta (1-42) peptide; assay: ELISA assay of amyloid-beta (1-42) in conditioned media of 2B7 cells; conditions: for IC50: Aβ-42, 2B7 cells, 5 hours, read-out: IC50 range
# How it was run: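 2B7 cells were treated with compounds for 5 hours at 37° C in media with 1% DMSO. Conditioned media, diluted 1:2 in blocking buffer, went into a sandwich ELISA with 6E10 capture and an HRP-labelled detection antibody, read by TMB at 450 nm. Values came from an Aβ peptide standard curve.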
compound,measurement,setting,value
C[C@@H]1CC(COC(=O)N2CCC2)OC2[C@H]1[C@@]1(C)CC[C@@]34C[C@@]35CC[C@H](O[C@H]3CN(C(=O)CC6CC6)CCO3)C(C)(C)[C@@H]5CCC4[C@]1(C)[C@H]2O (some centres unmarked),IC50,[1]; read-out: IC50 range,1000 to 10000 nM
same,IC50,[2]; read-out: IC50 range,< 1000 nM
same,IC50,[3]; read-out: IC50 range,1000 to 10000 nM
COC(=O)O[C@H](C(C)C)C1C[C@@H](C)[C@H]2C(O1)[C@H](O)[C@@]1(C)C3CC[C@H]4C(C)(C)[C@@H](O)CC[C@@]45C[C@@]35CC[C@]21C (some centres unmarked),inhibition at 20 µM,"[1]; Aβ-40, 20 μM",25 to 75%
same,inhibition at 20 µM,"[2]; Aβ-38, 20 μM",25 to 75%
same,inhibition at 20 µM,"[3]; Aβ-42, 20 μM",25 to 75%
CCO[C@@H]([C@H]1C[C@@H](C)[C@H]2[C@H](O1)[C@H](O)[C@@]1(C)C3CC[C@H]4C(C)(C)[C@@H](O[C@H]5CN(C6COC6)CCO5)CC[C@@]45C[C@@]35CC[C@]21C)C(C)(C)O (some centres unmarked),IC50,[1]; read-out: 50% reduction value,1000 to 10000 nM
same,IC50,[2]; read-out: 50% reduction value,< 1000 nM
same,IC50,[3]; read-out: 50% reduction value,< 1000 nM
same,IC50,[3]; read-out: IC50 range,< 1000 nM
C[C@@H]1CC(CNC(C(=O)O)C(F)(F)F)OC2[C@H]1[C@@]1(C)CC[C@@]34C[C@@]35CC[C@H](O[C@H]3CN(C(=O)CC6CC6)CCO3)C(C)(C)[C@@H]5CCC4[C@]1(C)[C@H]2O (some centres unmarked),IC50,[1]; read-out: IC50 range,1000 to 10000 nM
same,IC50,[3]; read-out: IC50 range,1000 to 10000 nM
C[C@@H]1C[C@H]([C@H](O)C(C)(C)OC(=O)O)OC2C1[C@@]1(C)CC[C@@]34C[C@@]35CC[C@H](O[C@@H]3OC[C@@H](O)[C@H](O)[C@H]3O)C(C)(C)[C@@H]5CC[C@H]4[C@]1(C)[C@H]2O (some centres unmarked),IC50,[4]; 5 h,1000 to 10000 nM
CC(=O)OCC1C[C@@H](C)C2C(O1)[C@H](O)[C@@]1(C)[C@@H]3CC[C@H]4C(C)(C)[C@@H](O)CC[C@@]45C[C@@]35CC[C@]21C (some centres unmarked) [drawing 923],inhibition at 20 µM,"[4]; Aβ-42, 20 umol/L, read-out: % Inhibition (range)",< 25%
CC(=O)N(Cc1ccccc1)CC1CC(C)C2C(O1)C(O)C1(C)C3CCC4C(C)(C)C(O)CCC45CC35CCC21C (centres unmarked) [drawing 801],IC50,[4],1000 to 10000 nM
CC1CC(C(OC(=O)C2CCC2)C(C)(C)O)OC2C1C1(C)CCC34CC35CCC(OC3CN(C6COC6)CCO3)C(C)(C)C5CCC4C1(C)C2O (centres unmarked) [drawing 865],IC50,[4],> 10000 nM
CC1CC(CNCC(F)(F)F)OC2C1C1(C)CCC34CC35CCC(O)C(C)(C)C5CCC4C1(C)C2O (centres unmarked),IC50,[4],> 10000 nM
CC(=O)O[C@@H]([C@H]1C[C@@H](C)C2C(O1)C(N)[C@@]1(C)[C@@H]3CC[C@H]4C(C)(C)[C@@H](O[C@@H]5OC[C@@H](O)[C@H](O)[C@H]5O)CC[C@@]45C[C@@]35CC[C@]21C)C(C)(C)O (some centres unmarked),IC50,[4]; 5 h,1000 to 10000 nM
CC1CC(C(OC(=O)C2CCC2)C(C)(C)O)OC2C1C1(C)CCC34CC35CCC(O)C(C)(C)C5CCC4C1(C)C2O (centres unmarked) [drawing 859],IC50,[4],≤ 1000 nM
CC(=O)O[C@H]1CC[C@]23C[C@]24CC[C@]2(C)C5[C@H](C)C[C@H]([C@H](OC(C)=O)C(C)(C)O)O[C@@H]5[C@H](O)[C@@]2(C)[C@@H]4CC[C@H]3C1(C)C (some centres unmarked),IC50,[4]; 5 h,≤ 1000 nM
C[C@@H]1C[C@H]([C@H](O)C(C)(C)O)OC2C(=O)[C@@]3(C)[C@@H]4CC[C@H]5C(C)(C)[C@@H](O)CC[C@@]56C[C@@]46CC[C@]3(C)C21 (some centres unmarked) [drawing 894],inhibition at 100 µM,"[4]; Aβ-42, 100 umol/L, read-out: % Inhibition (range)",25 to 75%
CC(=O)N(CC1CC(C)C2C(O1)C(O)C1(C)C3CCC4C(C)(C)C(OC(=O)c5cccnc5)CCC45CC35CCC21C)C1CCC1 (centres unmarked),IC50,[4],> 10000 nM
CC(=O)NCC1CC(C)C2C(O1)C(O)C1(C)C3CCC4C(C)(C)C(O)CCC45CC35CCC21C (centres unmarked),IC50,[4],> 10000 nM
